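Where inhibition never reached the appropriate level, the endpoint shown equals the highest concentration tested. Otherwise, values were interpolated linearly from a five-concentration, 48-hour dose response in 96-well plates. GI50 = concentration required for 50% inhibition of growth. TGI: concentration producing complete growth inhibition.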
Columns and labels:
Test in all cases: NCI anticancer screen, dose series, 48 h
HS 578T breast = test system: HS 578T breast
HCC-2998 colon = test system: HCC-2998 colon
IGROV1 ovarian = test system: IGROV1 ovarian
A549 NSCLC = test system: A549 NSCLC
KM12 colon = test system: KM12 colon
SK-MEL-5 melanoma = test system: SK-MEL-5 melanoma
OVCAR-5 ovarian = test system: OVCAR-5 ovarian
NCI/ADR-RES ovarian = test system: NCI/ADR-RES ovarian
SR leukemia = test system: SR leukemia
HCT-15 colon = test system: HCT-15 colon
T-47D breast = test system: T-47D breast
SF-539 CNS = test system: SF-539 CNS
MDA-MB-231 breast = test system: MDA-MB-231 breast
786-0 renal = test system: 786-0 renal
MCF7 breast = test system: MCF7 breast
COLO 205 colon = test system: COLO 205 colon
CAKI-1 renal = test system: CAKI-1 renal
HOP-92 NSCLC = test system: HOP-92 NSCLC
BT-549 breast = test system: BT-549 breast
HL-60(TB) leukemia = test system: HL-60(TB) leukemia
LOX IMVI melanoma = test system: LOX IMVI melanoma
SF-295 CNS = test system: SF-295 CNS
SNB-19 CNS = test system: SNB-19 CNS
UACC-257 melanoma = test system: UACC-257 melanoma
NCI-H522 lung = test system: NCI-H522 lung
DU-145 prostate = test system: DU-145 prostate
U251 CNS = test system: U251 CNS
HCT-116 colon = test system: HCT-116 colon
HOP-62 NSCLC = test system: HOP-62 NSCLC
RPMI-8226 leukemia = test system: RPMI-8226 leukemia
TK-10 renal = test system: TK-10 renal
UO-31 renal = test system: UO-31 renal
NCI-H226 lung = test system: NCI-H226 lung
SK-MEL-28 melanoma = test system: SK-MEL-28 melanoma
NCI-H460 lung = test system: NCI-H460 lung
SK-OV-3 ovarian = test system: SK-OV-3 ovarian
MOLT-4 leukemia = test system: MOLT-4 leukemia
EKVX NSCLC = test system: EKVX NSCLC
OVCAR-4 ovarian = test system: OVCAR-4 ovarian
M14 melanoma = test system: M14 melanoma
NCI-H23 lung = test system: NCI-H23 lung
RXF 393 renal = test system: RXF 393 renal
HT29 colon = test system: HT29 colon
OVCAR-8 ovarian = test system: OVCAR-8 ovarian
SK-MEL-2 melanoma = test system: SK-MEL-2 melanoma
SW-620 colon = test system: SW-620 colon
K-562 leukemia = test system: K-562 leukemia
SF-268 CNS = test system: SF-268 CNS
A498 renal = test system: A498 renal
MALME-3M melanoma = test system: MALME-3M melanoma
SN12C renal = test system: SN12C renal
SNB-75 CNS = test system: SNB-75 CNS
ACHN renal = test system: ACHN renal
MDA-MB-435 = test system: MDA-MB-435
OVCAR-3 ovarian = test system: OVCAR-3 ovarian

For `CC(C)=C[C@@H]1C[C@H](C)[C@H]2CC[C@H](C)c3c(O)c(OC4OCC(O)C(O)C4O)c(C)c1c32` (stereo not given in full), the GI50 (HS 578T breast) was 15.4 µM, the TGI (HS 578T breast) was 32.1 µM and the GI50 (HCC-2998 colon) was 4.43 µM. The TGI (HCC-2998 colon) was 19.8 µM, the GI50 (IGROV1 ovarian) was 12 µM and the TGI (IGROV1 ovarian) was 24.3 µM. The GI50 (A549 NSCLC) was 10.3 µM, the TGI (A549 NSCLC) was 22.7 µM and the GI50 (KM12 colon) was 12.7 µM. The TGI (KM12 colon) was 25.3 µM, the GI50 (SK-MEL-5 melanoma) was 12.3 µM and the TGI (SK-MEL-5 melanoma) was 25 µM. The GI50 (OVCAR-5 ovarian) was 12.6 µM, the TGI (OVCAR-5 ovarian) was 25.2 µM and the GI50 (NCI/ADR-RES ovarian) was 10.2 µM. The TGI (NCI/ADR-RES ovarian) was 21.9 µM, the GI50 (SR leukemia) was 6.92 µM and the TGI (SR leukemia) was 20.5 µM. It also gave a GI50 (HCT-15 colon) of 14 µM, a TGI (HCT-15 colon) of 26.9 µM and a GI50 (T-47D breast) of 13.3 µM. It also gave a TGI (T-47D breast) of 28.1 µM, a GI50 (SF-539 CNS) of 18.7 µM and a TGI (SF-539 CNS) of 34.6 µM. It also gave a GI50 (MDA-MB-231 breast) of 13.5 µM, a TGI (MDA-MB-231 breast) of 26.3 µM and a GI50 (786-0 renal) of 17.9 µM. For the same molecule, the TGI (786-0 renal) was 34.8 µM, the GI50 (MCF7 breast) was 13.1 µM and the TGI (MCF7 breast) was 25.8 µM. The GI50 (COLO 205 colon) was 15.5 µM, the TGI (COLO 205 colon) was 29.7 µM and the GI50 (CAKI-1 renal) was 3.91 µM. For the same molecule, the TGI (CAKI-1 renal) was 18.7 µM, the GI50 (HOP-92 NSCLC) was 12.3 µM and the TGI (HOP-92 NSCLC) was 24.7 µM. The GI50 (BT-549 breast) was 21.6 µM, the TGI (BT-549 breast) was 39.9 µM and the GI50 (HL-60(TB) leukemia) was 10.9 µM. The TGI (HL-60(TB) leukemia) was 24.5 µM, the GI50 (LOX IMVI melanoma) was 15 µM and the TGI (LOX IMVI melanoma) was 28.2 µM. It also gave a GI50 (SF-295 CNS) of 14.2 µM, a TGI (SF-295 CNS) of 29.3 µM and a GI50 (SNB-19 CNS) of 16.2 µM. The TGI (SNB-19 CNS) was 29.8 µM, the GI50 (UACC-257 melanoma) was 6.44 µM and the TGI (UACC-257 melanoma) was 19.7 µM. It also gave a GI50 (NCI-H522 lung) of 16.4 µM, a TGI (NCI-H522 lung) of 30.2 µM and a GI50 (DU-145 prostate) of 11.8 µM. It also gave a TGI (DU-145 prostate) of 24 µM, a GI50 (U251 CNS) of 16.1 µM and a TGI (U251 CNS) of 29.6 µM. It also gave a GI50 (HCT-116 colon) of 13.9 µM, a TGI (HCT-116 colon) of 28.4 µM and a GI50 (HOP-62 NSCLC) of 18.2 µM. The TGI (HOP-62 NSCLC) was 33.6 µM, the GI50 (RPMI-8226 leukemia) was 10.8 µM and the TGI (RPMI-8226 leukemia) was 22.9 µM. It also gave a GI50 (TK-10 renal) of 15.4 µM, a TGI (TK-10 renal) of 28.9 µM and a GI50 (UO-31 renal) of 17.8 µM. It also gave a TGI (UO-31 renal) of 31.6 µM, a GI50 (NCI-H226 lung) of 15.8 µM and a TGI (NCI-H226 lung) of 30.6 µM. The GI50 (SK-MEL-28 melanoma) was 14.4 µM, the TGI (SK-MEL-28 melanoma) was 27.7 µM and the GI50 (NCI-H460 lung) was 12.3 µM. For the same molecule, the TGI (NCI-H460 lung) was 24.7 µM, the GI50 (SK-OV-3 ovarian) was 18.9 µM and the TGI (SK-OV-3 ovarian) was 33.2 µM. The GI50 (MOLT-4 leukemia) was 5.24 µM, the TGI (MOLT-4 leukemia) was 19.7 µM and the GI50 (EKVX NSCLC) was 18.8 µM. The TGI (EKVX NSCLC) was 33.3 µM, the GI50 (OVCAR-4 ovarian) was 9.39 µM and the TGI (OVCAR-4 ovarian) was 22.1 µM. The GI50 (M14 melanoma) was 15.8 µM, the TGI (M14 melanoma) was 39.3 µM and the GI50 (NCI-H23 lung) was 12.8 µM. The TGI (NCI-H23 lung) was 25.5 µM, the GI50 (RXF 393 renal) was 10.9 µM and the TGI (RXF 393 renal) was 23.4 µM. It also gave a GI50 (HT29 colon) of 11.7 µM, a TGI (HT29 colon) of 24.7 µM and a GI50 (OVCAR-8 ovarian) of 16.6 µM. For the same molecule, the TGI (OVCAR-8 ovarian) was 33 µM, the GI50 (SK-MEL-2 melanoma) was 20.8 µM and the TGI (SK-MEL-2 melanoma) was 36.4 µM. The GI50 (SW-620 colon) was 15.9 µM, the TGI (SW-620 colon) was 29.3 µM and the GI50 (K-562 leukemia) was 5.73 µM. It also gave a TGI (K-562 leukemia) of 20.5 µM, a GI50 (SF-268 CNS) of 12.4 µM and a TGI (SF-268 CNS) of 24.9 µM. It also gave a GI50 (A498 renal) of 13.4 µM, a TGI (A498 renal) of 27.5 µM and a GI50 (MALME-3M melanoma) of 14.1 µM. It also gave a TGI (MALME-3M melanoma) of 27.6 µM, a GI50 (SN12C renal) of 10.2 µM and a TGI (SN12C renal) of 21.8 µM. The GI50 (SNB-75 CNS) was 12.7 µM, the TGI (SNB-75 CNS) was 25.9 µM and the GI50 (ACHN renal) was 14.6 µM. It also gave a TGI (ACHN renal) of 27.8 µM, a GI50 (MDA-MB-435) of 11.4 µM and a TGI (MDA-MB-435) of 24.3 µM. The GI50 (OVCAR-3 ovarian) was 11.9 µM and the TGI (OVCAR-3 ovarian) was 24.3 µM.

From PubChem BioAssay (NCI)
